# From ChEMBL document CHEMBL1201862, “PubChem BioAssay data set” (2004)
#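 Five compound concentrations were applied to cells in 96-well plates for 48 hours; endpoints were derived by simple linear interpolation of the resulting dose-response curve. GI50: concentration for 50% inhibition of growth.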 Activity calls are given as the source filed them. Cut-off read from the data, not from the text of the source: active = GI50 up to about 1.1 µM and inactive = higher.
# Columns and labels:
# Assay in all cases: growth of human tumour cells (NCI), 48 h
# NCI-H460 = tested on: NCI-H460
# SK-OV-3 = tested on: SK-OV-3
# HCT-15 = tested on: HCT-15
# SK-MEL-5 = tested on: SK-MEL-5
# T47D = tested on: T47D
# LOX IMVI = tested on: LOX IMVI
# OVCAR-8 = tested on: OVCAR-8
# SNB-19 = tested on: SNB-19
# Malme-3M = tested on: Malme-3M
# M14 = tested on: M14
# SNB-75 = tested on: SNB-75
# COLO 205 = tested on: COLO 205
# OVCAR-4 = tested on: OVCAR-4
# HL-60 = tested on: HL-60
# UO-31 = tested on: UO-31
# HT-29 = tested on: HT-29
# SK-MEL-2 = tested on: SK-MEL-2
# HCC 2998 = tested on: HCC 2998
# ACHN = tested on: ACHN
# EKVX = tested on: EKVX
Compound,GI50 (NCI-H460),GI50 (SK-OV-3),GI50 (HCT-15) [µM],GI50 (SK-MEL-5),GI50 (T47D),GI50 (LOX IMVI),GI50 (OVCAR-8),GI50 (SNB-19),GI50 (Malme-3M),GI50 (M14),GI50 (SNB-75),GI50 (COLO 205),GI50 (OVCAR-4),GI50 (HL-60),GI50 (UO-31),GI50 (HT-29),GI50 (SK-MEL-2),GI50 (HCC 2998),GI50 (ACHN),GI50 (EKVX)
N=c1oc2cc(O)ccc2cc1C(=O)Nc1ccccn1,62.8 µM (inactive),37.2 µM (inactive),51.5,42.3 µM (inactive),32.7 µM (inactive),34.4 µM (inactive),32.2 µM (inactive),92.9 µM (inactive),47.2 µM (inactive),59.7 µM (inactive),36.5 µM (inactive),14 µM (inactive),33 µM (inactive),30.5 µM (inactive),0.292 µM (active),29.7 µM (inactive),28.8 µM (inactive),34.3 µM (inactive),23.4 µM (inactive),40.2 µM (inactive)
CC1=CC=CC(C)(C)CC1(O[Si](C)(C)C)C(F)(F)F (stereo not given),> 100 µM (inactive),> 100 µM (inactive),> 100,> 100 µM (inactive),> 100 µM (inactive),> 100 µM (inactive),> 100 µM (inactive),> 100 µM (inactive),> 100 µM (inactive),> 100 µM (inactive),> 100 µM (inactive),72.3 µM (inactive),> 100 µM (inactive),28.9 µM (inactive),> 100 µM (inactive),46.8 µM (inactive),> 100 µM (inactive),> 100 µM (inactive),> 100 µM (inactive),82.6 µM (inactive)
CC(C)N(C(C)C)S(=O)(=O)CC12CCC(C/C1=N\O)C2 (stereo not given),> 100 µM (inactive),> 100 µM (inactive),> 100,> 100 µM (inactive),> 100 µM (inactive),> 100 µM (inactive),> 100 µM (inactive),> 100 µM (inactive),> 100 µM (inactive),> 100 µM (inactive),> 100 µM (inactive),> 100 µM (inactive),> 100 µM (inactive),> 100 µM (inactive),> 100 µM (inactive),> 100 µM (inactive),> 100 µM (inactive),> 100 µM (inactive),> 100 µM (inactive),> 100 µM (inactive)
COc1ccc2nc3ccc(OC)cc3c(SCCCl)c2c1,33.9 µM (inactive),> 74 µM (inactive),12.7,8.87 µM (inactive),15.2 µM (inactive),5.98 µM (inactive),8.57 µM (inactive),32.4 µM (inactive),9.57 µM (inactive),12.3 µM (inactive),13.7 µM (inactive),> 39.1 µM (inactive),12.7 µM (inactive),3.28 µM (inactive),32 µM (inactive),8.28 µM (inactive),20.7 µM (inactive),> 45.8 µM (inactive),13.9 µM (inactive),> 49.9 µM (inactive)
